Source: patent US20240254119A1 (THIRD HARMONIC BIO, INC., priority 2022, published 2024)

Tests used:
wtKIT [1] = biological target: T1, wtKIT (Homo sapiens, UniProt P10721); test: HTRF biochemical assay, wtKIT (phosphorylation of a peptide substrate); conditions: Table 4
T1 construct: 1888289AM in the reaction mixtures
Procedure, shortened: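 HTRF read-out of FAM-peptide (1 µM) phosphorylation after anti-phosphotyrosine antibody addition and EDTA quench. Reaction: 5.0 nM wtKIT, 400 µM ATP, 10 mM Mn2+, HEPES pH 7.5, 1% DMSO, 3 h, 25 °C; optional enzyme-compound preincubation; enzyme level set for 10-20% conversion.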

CSF-1R [2] = biological target: T2, CSF-1R (Homo sapiens, UniProt P07333); test: HTRF biochemical assay, CSF-1R; conditions: Table 4
T2 construct: purchased Invitrogen PV3249 (lot 662393N)
T2 sequence (P07333 20-972): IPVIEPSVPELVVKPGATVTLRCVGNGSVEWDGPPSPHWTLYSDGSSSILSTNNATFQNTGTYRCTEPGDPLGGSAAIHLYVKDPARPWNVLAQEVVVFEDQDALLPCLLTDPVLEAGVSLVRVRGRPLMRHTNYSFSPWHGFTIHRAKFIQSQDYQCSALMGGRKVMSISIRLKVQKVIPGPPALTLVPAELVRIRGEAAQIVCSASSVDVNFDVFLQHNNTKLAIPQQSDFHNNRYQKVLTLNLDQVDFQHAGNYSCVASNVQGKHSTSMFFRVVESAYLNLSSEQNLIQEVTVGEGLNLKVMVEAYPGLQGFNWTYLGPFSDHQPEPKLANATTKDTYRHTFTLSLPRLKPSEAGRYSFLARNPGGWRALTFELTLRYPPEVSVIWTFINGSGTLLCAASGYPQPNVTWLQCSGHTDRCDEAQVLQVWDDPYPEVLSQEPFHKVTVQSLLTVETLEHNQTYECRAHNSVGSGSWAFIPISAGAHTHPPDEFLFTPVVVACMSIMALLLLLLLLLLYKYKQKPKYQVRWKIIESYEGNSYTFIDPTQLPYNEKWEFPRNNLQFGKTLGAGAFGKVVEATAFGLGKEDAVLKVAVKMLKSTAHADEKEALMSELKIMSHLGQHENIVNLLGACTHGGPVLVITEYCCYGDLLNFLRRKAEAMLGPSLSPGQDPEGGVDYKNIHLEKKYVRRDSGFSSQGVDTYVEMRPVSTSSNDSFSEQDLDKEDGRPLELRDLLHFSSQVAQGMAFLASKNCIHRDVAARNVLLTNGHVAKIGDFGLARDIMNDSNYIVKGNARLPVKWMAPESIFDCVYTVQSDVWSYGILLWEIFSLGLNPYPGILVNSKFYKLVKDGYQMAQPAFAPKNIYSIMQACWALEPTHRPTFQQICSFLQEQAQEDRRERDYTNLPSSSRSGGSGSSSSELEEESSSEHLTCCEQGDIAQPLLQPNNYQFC
Description: (§1) Exemplary compounds were tested for ability to inhibit the phosphorylation of a peptide substrate by the tyrosine kinase wt KIT, PDGFRα, or CSF-1R. Assay procedures and results are described below.
(§2) Enzyme, substrate, and cofactors (ATP and Mn^2+) are combined in a well of a microtiter plate and incubated for 3 hours at 25° C. At the end of the incubation, the reaction is quenched by the addition of an EDTA-containing buffer.
(§3) The substrate used in the CSF-1R and PDGFRα assay is FAM-[…]-CONH2 (FAM is carboxyfluorescein). Peptide should be >95% purity. The substrate for the KIT assay is FAM-[…]-NH2.
(§4) • 1. To a well of a 384-wellplate add 5 μL of 2× enzyme buffer (or control). • 2. Add 100 nL of 100× compound. Enzyme and compound may be pre-incubated at this time if desired. • 3. Add 5 μL of 2× substrate buffer. • 4. Incubate plate at 25° C. for 3 hours. • 5. Add 10 uL of anti-phosphotyrosine antibody buffer. • 6. Read plate in BioTek Synergy Reader. Reaction Conditions for wtKIT Assay

PDGFRα [3] = biological target: T3, PDGFRα (Homo sapiens, UniProt P16234); test: HTRF biochemical assay, PDGFRα; conditions: Table 4, read-out: PDFGRα Biochemical IC50 avg
T3 construct: purchased Millipore 14-467 (lot 26321_ACTI)
T3 sequence (P16234 24-1089): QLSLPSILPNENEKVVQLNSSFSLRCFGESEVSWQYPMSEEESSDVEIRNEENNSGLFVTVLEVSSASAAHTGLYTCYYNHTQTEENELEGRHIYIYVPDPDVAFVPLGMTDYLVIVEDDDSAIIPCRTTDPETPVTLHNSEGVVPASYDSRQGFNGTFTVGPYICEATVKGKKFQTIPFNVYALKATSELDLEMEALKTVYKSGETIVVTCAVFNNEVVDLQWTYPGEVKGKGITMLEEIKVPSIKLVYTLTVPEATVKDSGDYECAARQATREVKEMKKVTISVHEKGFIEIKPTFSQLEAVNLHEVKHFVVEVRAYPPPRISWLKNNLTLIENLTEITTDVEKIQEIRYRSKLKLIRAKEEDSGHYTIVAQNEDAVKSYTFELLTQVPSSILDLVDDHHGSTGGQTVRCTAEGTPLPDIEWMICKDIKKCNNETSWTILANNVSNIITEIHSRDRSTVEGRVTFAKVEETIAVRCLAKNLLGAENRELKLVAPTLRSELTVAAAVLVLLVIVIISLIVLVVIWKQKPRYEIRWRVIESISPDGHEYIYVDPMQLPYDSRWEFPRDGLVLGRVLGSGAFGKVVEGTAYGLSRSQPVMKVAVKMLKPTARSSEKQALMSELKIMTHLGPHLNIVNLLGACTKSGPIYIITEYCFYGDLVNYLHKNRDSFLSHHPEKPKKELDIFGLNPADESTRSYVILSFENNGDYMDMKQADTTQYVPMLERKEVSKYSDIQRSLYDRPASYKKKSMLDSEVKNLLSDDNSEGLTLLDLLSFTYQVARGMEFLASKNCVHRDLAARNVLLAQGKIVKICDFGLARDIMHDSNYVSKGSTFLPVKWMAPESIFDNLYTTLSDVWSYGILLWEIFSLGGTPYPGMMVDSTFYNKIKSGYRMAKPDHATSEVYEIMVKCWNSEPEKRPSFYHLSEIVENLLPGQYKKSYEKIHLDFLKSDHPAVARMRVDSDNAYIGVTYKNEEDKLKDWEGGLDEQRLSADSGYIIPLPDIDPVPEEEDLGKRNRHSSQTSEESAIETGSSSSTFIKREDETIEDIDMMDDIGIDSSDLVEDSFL
Description: as §1, §2, §3, §4

wtKIT [4] = biological target: T1, wtKIT; test: Caliper biochemical assay, wtKIT; conditions: Table 6, read-out: KIT Biochemical IC50 avg
Procedure, shortened: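 Mobility-shift read-out: after EDTA stop, fluorescent peptide substrate and product resolved electrophoretically on LabChip 3000. Reaction ran 3 h at 25° C with 400 μM ATP, Mn^2+ cofactor, 5.0 nM wtKIT, 1 μM FAM-peptide, pH 7.5 HEPES buffer; no-enzyme wells defined full inhibition.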

CSF-1R [5] = biological target: T2, CSF-1R; test: Caliper biochemical assay, CSF-1R; conditions: Table 6
Procedure, shortened: (§5)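 Mobility-shift readout: after EDTA quench, fluorescent peptide and product are resolved electrophoretically on a LabChip and measured by fluorescence. Reactions contain enzyme, carboxyfluorescein peptide, ATP, Mn^2+ and compound, run 3 h at 25° C; 100% inhibition control lacks enzyme.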

PDGFRα [6] = biological target: T3, PDGFRα; test: Caliper biochemical assay, PDGFRα; conditions: Table 6
Procedure, shortened: as §5

Kinetic solubility assay = format: physicochemical; conditions: kinetic solubility, 50 mM PB (pH 7.4), shaken 24 hours at RT
Procedure, shortened: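 Concentration in the filtrate was determined by UPLC-UV or HPLC-UV with a standard curve. Before that, compound (10 mM DMSO stock) in 50 mM PB at pH 7.4 was agitated 24 h at room temperature, then PTFE-filtered with centrifugation.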

[7] = test system: KIT phosphorylation in M-07e cells; test: Cell-based KIT phosphorylation in M-07e cells by pKIT ELISA; set-up: species or system human; conditions: SCF stimulation
Description: Exemplary compounds were tested for ability to inhibit KIT phosphorylation using M-07e cells as monitored by pKIT ELISA. M-07e cells are also represented as M-07E, M-07e, M07-e, M07e, Mo7e, MO7e, M07E and MO7E. Assay procedures and results are described below.
Part I—Procedures for Determining KIT Inhibition inM-07e Cells Using pKTT ELISA Reagents and consumables: • M-07e cells: Initially obtained from Accegen, cat #ABC-TC1313 • p-cKIT Capture ELISA antibody: anti-Human Phospho-CD117/c-kit, R&D cat #DYC3527-5 • Anti-pY-HIRP antibody: R&D cat #DYC3527-5 • 25× wash buffer: Quantikine ELISA Wash Buffer 1, R&D cat #WA126 • PBS: R&D cat #DY006 • 96 well ELISA plates: Clear Polystyrene Microplates, R&D Cat #DY990 • 96 well Tissue culture plates: Corning® 96 Well TC-Treated Microplates, cat #CLS3894 • RPMI medium: ATCC® RPMI-1640 Medium, Cat #30-2001 • FBS: Fetal Bovine Serum, certified, United States Gibco, Thermo-Fisher 16000044 • GM-CSF: Recombinant Human GM-CSF Protein, R&D cat #215-GM • SCF: Recombinant Human SCF Protein, R&D cat #255-SC
• 1. Prepare cells: • a. Culture M-07e cells in RPMI medium+20% serum+GM-CSF+penstrep • To make 50 mL of growth medium • i. 40 mL RPMI media • ii. 10 mL FBS • iii. 10 uL of GM-CSF (100 ug/mL stock) • iv. 0.5 mL pen strep (100×) • b. Harvest cells • c. Re-suspend cells in 100% RPMI media (without serum) to final concentration of 1 million cells/mL • d. Transfer 100 uL of cell solution to 11 columns of a 96 well flat bottom cell culture plate • e. Incubate cells over night at 37 C • 2. Prepare ELISA Plates: • a. Dilute capture antibody to concentration 4 ug/mL in PBS • b. Coat 96 well microplates with 100 uL of capture antibody • c. Seal plates and incubate at RT overnight • d. Wash plates with 300 uL of wash buffer • e. Repeat wash • f. Treat plates with 300 uL of blocking buffer at RT for 1 hour • 3. Addition of compounds: • a. Prepare compound dilutions in RPMI media • i. Top test concentration is 1 uM • ii. Serially dilute compounds 3× for a total of 8 concentrations • b. Add 10 uL of 10× compound dilutions to cells • i. No compounds added in column 11 (for controls) • c. Incubate cells with compounds for 2 hours at 37 C • d. Stimulate cells with SCF for 5 min at concentration of 100 ng/mL (final) • i. In column 11 stimulate top 4 wells. Leave bottom 4 wells unstimulated • e. Remove cell culture media with multichannel pipet • f. Add 110 uL of Lysis buffer to all wells • g. Incubate plates at RT for 30 min while shaking • 4. Transfer 100 uL of cell lysis to each prepared Elisa plate • 5. Add 100 uL of the standard pc-KIT dilutions to the standard wells in column 12 • a. Top concentration=2000 pg/mL • b. 2× dilutions • 6. Incubate ELISA plate with cell lysate for 2 hours at RT • 7. Wash Plate with wash buffer (wash 1) • 8. Repeat wash (wash 2) • 9. […] Add 100 uL of diluted anti-pY-HRP (1/1000 dilution in detection antibody dilution buffer) and incubate 2 hours at RT • 11. Wash plate with wash buffer (wash 1) • 12. Repeat wash (wash 2) • 13. Repeat wash (wash 3) • 14. Add 100 uL of substrate solution to each well • 15. Incubate plates 20 min • Note: Plate development is indicated by aqua color • 16. Add 50 uL of stop solution to each well • 17. Determine optical density on Bitek Synergy Neo2: • a. Make new experiment
Select absorbance 1 set to 450 nm

[8] = biological target: T4, BCRP (BCRP-MDCKII monolayer) (Homo sapiens, UniProt Q9UNQ0); test: MDCKII-BCRP bidirectional transport assay; format: in vitro ADME
T4 construct: host or cells: MDCKII (canine kidney) cells
T4 sequence (Q9UNQ0 1-655): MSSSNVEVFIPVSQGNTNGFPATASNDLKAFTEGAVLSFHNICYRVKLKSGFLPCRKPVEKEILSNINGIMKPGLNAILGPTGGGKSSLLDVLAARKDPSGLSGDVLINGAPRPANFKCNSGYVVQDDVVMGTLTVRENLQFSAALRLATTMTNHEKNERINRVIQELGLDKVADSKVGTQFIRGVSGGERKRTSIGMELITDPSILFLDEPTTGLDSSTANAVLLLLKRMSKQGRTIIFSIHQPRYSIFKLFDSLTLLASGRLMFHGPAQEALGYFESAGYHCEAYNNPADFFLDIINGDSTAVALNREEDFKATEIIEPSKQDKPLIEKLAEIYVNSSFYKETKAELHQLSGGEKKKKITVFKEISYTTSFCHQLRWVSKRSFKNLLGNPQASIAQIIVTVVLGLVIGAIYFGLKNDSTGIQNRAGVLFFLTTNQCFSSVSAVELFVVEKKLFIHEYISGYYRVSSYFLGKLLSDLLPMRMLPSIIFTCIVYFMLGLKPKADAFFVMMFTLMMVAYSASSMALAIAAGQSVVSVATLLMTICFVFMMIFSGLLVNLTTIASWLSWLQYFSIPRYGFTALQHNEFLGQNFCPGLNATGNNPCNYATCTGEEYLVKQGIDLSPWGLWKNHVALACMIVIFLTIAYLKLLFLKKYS
Procedure, shortened: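 Efflux ratios were derived from Papp values, alongside recovery, with compounds quantified by LC-MS/MS. Both directions were tested in duplicate across BCRP-MDCKII monolayers used on days 12–15. Incubation ran 120 min at 37° C, 5% CO2, after a 15 min preincubation in assay buffer.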

T1 sequence (P10721 26-976): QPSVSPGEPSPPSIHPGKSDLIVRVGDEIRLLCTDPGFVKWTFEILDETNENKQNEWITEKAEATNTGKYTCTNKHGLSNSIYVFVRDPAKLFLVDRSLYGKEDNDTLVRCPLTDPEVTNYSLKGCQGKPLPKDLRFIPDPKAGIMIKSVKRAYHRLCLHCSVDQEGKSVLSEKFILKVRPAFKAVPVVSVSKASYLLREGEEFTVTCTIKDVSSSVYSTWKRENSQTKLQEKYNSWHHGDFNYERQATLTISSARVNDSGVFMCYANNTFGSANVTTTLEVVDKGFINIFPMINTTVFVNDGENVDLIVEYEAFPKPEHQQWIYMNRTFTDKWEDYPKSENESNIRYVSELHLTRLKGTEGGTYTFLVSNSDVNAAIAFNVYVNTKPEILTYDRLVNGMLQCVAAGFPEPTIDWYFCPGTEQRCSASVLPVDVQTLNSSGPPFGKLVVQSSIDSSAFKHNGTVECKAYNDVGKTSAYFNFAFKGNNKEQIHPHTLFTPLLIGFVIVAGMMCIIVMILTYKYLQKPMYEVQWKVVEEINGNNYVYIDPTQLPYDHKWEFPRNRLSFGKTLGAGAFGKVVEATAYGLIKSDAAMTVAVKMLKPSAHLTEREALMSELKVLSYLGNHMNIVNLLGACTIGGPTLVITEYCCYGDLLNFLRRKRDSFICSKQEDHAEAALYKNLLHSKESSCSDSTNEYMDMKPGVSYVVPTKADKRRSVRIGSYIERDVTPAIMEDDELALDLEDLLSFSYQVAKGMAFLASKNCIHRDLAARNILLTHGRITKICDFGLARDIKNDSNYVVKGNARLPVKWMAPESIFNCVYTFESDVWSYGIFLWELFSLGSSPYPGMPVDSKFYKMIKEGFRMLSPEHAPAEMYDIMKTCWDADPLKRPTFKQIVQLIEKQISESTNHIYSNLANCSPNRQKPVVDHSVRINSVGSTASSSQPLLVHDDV

| SMILES | IC50 (wtKIT [1]) | IC50 (CSF-1R [2]) | IC50 (PDGFRα [3]) | IC50 (wtKIT [4]) | IC50 (CSF-1R [5]) | IC50 (PDGFRα [6]) | Solubility (μM) (Kinetic solubility assay) | IC50 [7] | MDCK-BCRP: Efflux Ratio [8] | MDCK-BCRP: Papp A-B ([8]; apical to basolateral) |
| --- | --- | --- | --- | --- | --- | --- | --- | --- | --- | --- |
| COCCS(=O)(=O)N1CC[C@H]1c1nc(-c2ccc(C)c(NC(=O)c3cnc4ccccn34)c2)no1 [Compound I-189] | ≤ 50 nM | 500 to 5000 nM | 500 to 5000 nM | 50 to 500 nM | 50 to 500 nM | 500 to 5000 nM | ** (a solubility greater than 10 μM and less than or equal to 50 μM) | – | – | – |
| Cc1nc(-c2ccc(F)c(NC(=O)c3cnn4cc(-c5ccn(C)n5)ccc34)c2)no1 [Compound I-657] | ≤ 50 nM | 50 to 500 nM | 500 to 5000 nM | – | – | – | – | – | – | – |
| Cc1ccc(-c2noc(C3CC(F)(F)C3)n2)cc1NC(=O)c1cnc2cc(CO)ccn12 [Compound I-105] | ≤ 50 nM | ≤ 50 nM | 500 to 5000 nM | – | – | – | **** (a solubility less than or equal to 2 μM) | 50 to 500 nM | – | – |
| Cc1ccc(-c2noc(C3CC(O)C3)n2)cc1NC(=O)c1cnn2cc(-c3ccn(C)n3)ccc12 (centres unmarked) [Compound I-652] | ≤ 50 nM | ≤ 50 nM | 50 to 500 nM | – | – | – | – | – | – | – |
| Cc1ccc(-c2noc(C3CC3F)n2)cc1NC(=O)c1cnc2cc(COC3CC(O)C3)ccn12 (mixture of isomers) [Compound I-72] | ≤ 50 nM | ≤ 50 nM | 500 to 5000 nM | – | – | – | **** (a solubility less than or equal to 2 μM) | ≤ 50 nM | – | – |
| Cc1ccc(-c2noc([C@H]3C[C@@H]3F)n2)cc1NC(=O)c1cnc2cc(F)ccn12 [Compound I-103] | ≤ 50 nM | ≤ 50 nM | 500 to 5000 nM | – | – | – | **** (a solubility less than or equal to 2 μM) | 50 to 500 nM | – | – |
| Cc1nc(-c2ccc(C)c(NC(=O)c3cnc4cc(OCCCN(C(=O)OC(C)(C)C)C5COC5)ccn34)c2)no1 [Compound I-660] | ≤ 50 nM | 50 to 500 nM | 500 to 5000 nM | – | – | – | – | – | – | – |
| COCc1ccn2c(C(=O)Nc3cc(-c4noc(C)n4)ccc3F)cnc2c1 [Compound I-658] | 500 to 5000 nM | 500 to 5000 nM | 5000 to 30000 nM | – | – | – | – | – | – | – |
| COCc1ccn2c(C(=O)Nc3cc(-c4noc(C)n4)ccc3C)cnc2c1 [Compound I-132] | ≤ 50 nM | 5000 to 30000 nM | 500 to 5000 nM | ≤ 50 nM | 500 to 5000 nM | 500 to 5000 nM | **** (a solubility less than or equal to 2 μM) | – | – | – |
| Cc1ccc(-c2noc([C@H]3CC(F)(F)CN3)n2)cc1NC(=O)c1cnn2ccccc12 [Compound I-243] | ≤ 50 nM | 50 to 500 nM | 50 to 500 nM | ≤ 50 nM | 50 to 500 nM | 50 to 500 nM | * (a solubility greater than 50 μM) | – | – | – |
| Cc1ccc(-c2noc([C@@H]3CCCO3)n2)cc1NC(=O)c1cnc2ccccn12 [Compound I-396] | ≤ 50 nM | 50 to 500 nM | 500 to 5000 nM | ≤ 50 nM | 50 to 500 nM | 500 to 5000 nM | **** (a solubility less than or equal to 2 μM) | – | 2.86 | 8.25 10^−6 cm/s |
| COc1ccc2ncc(C(=O)Nc3cc(-c4noc(C[C@H](C)O)n4)ccc3C)n2c1 [Compound I-89] | ≤ 50 nM | 50 to 500 nM | 500 to 5000 nM | – | – | – | – | ≤ 50 nM | – | – |
| COCc1ccn2c(C(=O)Nc3cc(-c4noc(C(F)(F)F)n4)ccc3C)cnc2c1 [Compound I-664] | 50 to 500 nM | 50 to 500 nM | 500 to 5000 nM | – | – | – | – | – | – | – |
| Cc1cc(C)c(-c2noc(C3CC3(F)F)n2)cc1NC(=O)c1cnc2ccccn12 (racemic) [Compound I-129] | ≤ 50 nM | ≤ 50 nM | 500 to 5000 nM | ≤ 50 nM | ≤ 50 nM | 500 to 5000 nM | **** (a solubility less than or equal to 2 μM) | – | – | – |
